Measurements as given in the METLIN SMRT retention time set (Domingo-Almenara et al. 2019).

Assay: gradient 5% acetonitrile 3 min, to 50% in 2 min, to 85% in 15 min, held 3 min, 100 µL/min
Conditions: column: Zorbax Extend-C18 2.1 x 50 mm; eluents: water / acetonitrile, 0.1% formic acid
Procedure, shortened: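 Standards, all pure, were combined into mixtures of ~100 molecules and run at 100 μL/min on a Zorbax Extend-C18 column (2.1 × 50 mm, 1.8 μm) with water and acetonitrile, each containing 0.1% formic acid. A coupled quadrupole time-of-flight mass spectrometer operated in positive and negative ionization mode. Retention time values come from computationally picked adduct peaks, each inspected manually.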

RP-LC retention time	SMILES
905 s	CC(=O)N1CCc2sc(S(=O)(=O)N3CCN(c4ccccc4F)CC3)cc2C1
571 s	COCCNC(=O)N1CCC(OC2CCN(Cc3ccccc3)CC2)CC1
824 s	O=C(CCCc1c[nH]c2ccccc12)N1CCN2CCS(=O)(=O)N(C3CC3)C(=O)C2C1 (configuration not stated)
902 s	CCOc1ccccc1NC(=O)N1CCC2(C1)C(=O)N(C)c1ccccc12 (configuration not stated)
836 s	COc1ccccc1-c1nc2nccc(-c3ccco3)n2n1
1170 s	COc1nc2ccccc2nc1N1CCCC(C(=O)Nc2ccc(F)cc2F)C1 (configuration not stated)
777 s	COc1ccc(NC(=O)C2CCN(S(=O)(=O)c3ccc4c(c3)NC(=O)CO4)CC2)cc1Cl
1090 s	CCOc1ccc(C2c3[nH]c4ccccc4c3CCN2C(=O)C2CC2)cc1 (configuration not stated)
1010 s	Cc1ccc(N2N=NC3C(=O)N(c4ccccc4)C(=O)C32)cc1F (configuration not stated)
600 s	O=C(NCCc1ccccn1)C1CC(=O)N(c2n[nH]c3cc(Br)ccc23)C1 (configuration not stated)
822 s	CCN1C(=O)c2c(C(=O)Nc3ccc(C)cc3)ncn2CC1(C)C(=O)NC1CCCC1 (configuration not stated)
609 s	O=C(CCn1c(N2CCCC2)nc2ccsc2c1=O)N1CCN(c2ccccn2)CC1
725 s	CC(C)N(C(=O)Cn1c(CN(C)C(=O)c2ccco2)nc2ccccc21)c1ccccc1
712 s	CCOc1ccc(CNC(=O)C2CCN(C(=O)C3Sc4ccccc4NC3=O)CC2)cc1OC (configuration not stated)
631 s	CC1(C)CC(=O)C2=C(C1)Nc1ccccc1N(CC(=O)NCc1ccncc1)C2c1ccco1 (configuration not stated)
996 s	O=c1n(Cc2c(F)cccc2Cl)nc2ccc(S(=O)(=O)N3CCCCCC3)cn12
882 s	Clc1ccc2nc(N3CCOCC3)nc(-c3ccccc3)c2c1
712 s	CC(C(=O)Nc1ccc2c(c1)OCCO2)n1cnc2nc3c(cc2c1=O)CCCC3 (configuration not stated)
561 s	CCn1cnnc1C1CCN(C(=O)c2sccc2C)CC1
850 s	O=C(Nc1cccc(Cl)c1)C1CCN(S(=O)(=O)c2cc(C(=O)N3CCOCC3)cs2)CC1
760 s	Cn1c(=O)oc2cc(-c3noc(CNC(=O)Cc4ccccc4)n3)ccc21
621 s	O=C(c1cc(-c2ccco2)on1)N1CCn2c1nc1ccccc12
819 s	O=C(Nc1ccc(F)c(F)c1)C1CCN(C(=O)c2ncn3c2COC(c2ccccc2)C3)CC1 (configuration not stated)
1020 s	CN1C(=O)C2CCCCN2c2ccc(C(=O)N3CCN(c4ccc(Cl)cc4)CC3)cc21 (configuration not stated)

Second part, the compound before the results:

SMILES	RP-LC retention time
COc1ccc(-c2cn3cccnc3n2)cc1NC(=O)c1cc(OC)c(OC)c(OC)c1	643 s
N#Cc1ccc(C(=O)NC2CCN(c3cc(-c4cccs4)[nH]n3)C2)cc1 (configuration not stated)	700 s
Cc1cc(Cl)ccc1S(=O)(=O)N1CCc2c(c(-c3nc(C4CC4)no3)nn2C)C1	1070 s
CCN1CCN(CCCNS(=O)(=O)c2cc(-c3nc(C)c(C)s3)sc2C)CC1	608 s
O=C(CCc1c[nH]c2ccccc12)N1CC(n2cc(COCC3CC3)nn2)C1	719 s
Cn1ncc(N2CCCC(C(=O)O)C2)cc1=O (configuration not stated)	580 s
CCn1ccc2sc(C)c(C(=O)NC3CCCCCC3)c2c1=O	894 s
CCn1nc(-c2ccc(C)c(S(=O)(=O)N3CCC(C(N)=O)CC3)c2)c2c(c1=O)CCCC2	718 s
Cc1ccc(C)c(Nc2c(-c3nc(C)no3)cnc3nc(C)ccc23)c1	813 s
CCn1c(=O)n(CC)c2cc(S(=O)(=O)c3ccccc3)c(NC(=O)CC(C)C)cc21	937 s
CCc1nc(-c2csc(S(=O)(=O)N3CCCC(C(=O)NCc4cc(C)ccc4C)C3)c2)no1 (configuration not stated)	1080 s
COc1ccccc1OCCNc1nc2ccncc2n(C(C)C)c1=O	573 s
Cc1ccc(Nc2c(-c3ccc(N(C)C)cc3)nc3ccc(Cl)cn23)cc1	818 s
CCCn1nnnc1NCc1ccc2c(c1)n(C)c(=O)n2C	638 s
CC(C)Cn1c(=O)c(-c2ccc(C(=O)N3CCC4(CC3)OCCO4)cc2)nc2ccccc21	987 s
Cc1ccc(-c2coc(-c3ccc(NS(=O)(=O)c4ccc(Cl)s4)cc3)n2)c(C)c1	1350 s
O=C(NC1CCCC1)c1nc(Cn2c(=O)oc3ccc(Cl)cc32)no1	931 s
CC(C(=O)O)c1ccc2c(c1)Cc1cccnc1O2 (configuration not stated)	797 s
O=C(NC1CCCCC1)N(Cc1ccccn1)Cc1ccco1	635 s
O=C(c1ccoc1)N1CCCCC1c1nc(-c2cnccn2)no1 (configuration not stated)	664 s
COc1ccccc1-c1nnc(NC(=O)c2c[nH]c3ccccc23)o1	678 s
CSc1n[nH]c(-c2cccs2)n1	714 s

SMILES	RP-LC retention time
Cc1ccc(S(=O)(=O)N2CCC3(CC2)CC(C)(O)CCO3)cc1 (configuration not stated)	806 s
COc1ccc(CNC(=O)c2ccc3[nH]c4c(c3c2)CN(C(C)=O)CC4)c(OC)c1	680 s
O=C(NCCc1ccccc1)N1C[C@@H]2C[C@H]1C[C@@H]2NS(=O)(=O)c1ccccc1	820 s
COc1cccc(C(=O)NCCc2c[nH]c3ccc(F)cc23)c1	820 s
O=C(Nc1cnc(N2CCCCC2)nc1)c1ccc(Br)o1	927 s
CCc1ccc(NC(=O)Cn2c(=O)n(-c3ccc(C)cc3)c(=O)c3c2cc(C)n3C)cc1	956 s
CCN1CCN(c2ccc(-c3nc(-c4ccc(C)cc4)no3)cn2)CC1	715 s
C=CCN(CC=C)C(=O)Cn1c(C2CC(=O)N(c3ccc(OC)cc3)C2)nc2ccccc21 (configuration not stated)	682 s
COCCNc1nc(-c2ccc(C)cc2)nnc1C	608 s
CN(C)CCNCc1ccc(-c2cc(Cl)ccc2Cl)o1	578 s
O=C(c1nnc(-c2csc(S(=O)(=O)N3CCN(c4ncccn4)CC3)c2)o1)N1CCCC1	913 s
CCOC(=O)CCNC(=O)N1CCCCCCN(C)C(=O)CC1	627 s
Cc1nn(CC(=O)NCc2cccs2)c(=O)c2nc(-c3ccccc3)sc12	813 s
CC(=O)Nc1ccc(C)cc1S(=O)(=O)N1CCC2(CC1)Nc1ccc(C)c(C)c1-n1cccc12	1070 s
CC(C)n1c(=O)c2ccccc2n(Cc2nc(-c3ccccc3Br)no2)c1=O	1140 s
CC(C)Oc1ccc(C(=O)Nc2nc(-c3cccnc3)cs2)cc1	660 s
CCc1cccc(C)c1Nc1c(-c2ccc(OC)c(OC)c2)nc2cnccn12	805 s
CCn1c(=O)n(CC(=O)NCCC(C)C)c(=O)c2cnc(-c3ccccc3)nc21	678 s
CCOc1ccc(OCC)c(NS(=O)(=O)c2cc(-c3c(C)noc3NC(C)=O)ccc2OC)c1	864 s
CCCc1c(C(=O)O)nnn1-c1ccccc1F	705 s
COC(=O)N1CCN(CCNC(=O)Cc2ccc(SC(C)C)cc2)CC1	584 s
